≈ marks a conversion by molar mass, not a printed value. Where two headings read alike, the source gives them in different places.
Tests used:
[1] = tested on: S. aureus ASAU001 (Susceptible Organism ATCC 29213); experiment: MIC assay, S. aureus ASAU001; assay type: cell-based; conditions: Staphylococcus aureus, ATCC29213, read-out: MIC ASAU 001
Method: (§1) The in vitro MIC for bacterial isolates may be obtained in the following manner: a test compound is incorporated into a series of two-fold dilutions in cation adjusted Mueller-Hinton broth (CAMHB). Different bacterial strains diluted to provide a uniform inoculum are added to the CAMHB containing test compounds. A well without test compound is included for each strain as a growth control. […] The procedures used in these experiments are generally those standardized by the Clinical and Laboratory Standards Institute (CLSI), as set forth in the CLSI publication entitled “M7-A7. Methods for dilution antimicrobial susceptibility tests for bacteria that grow aerobically; approved standard-seventh edition.” (2006), which is incorporated by reference as if fully set forth herein. The following exemplifies such a procedure although it is to be understood that modifications of the procedure may be implemented as required.
(§2) Two-fold dilutions of the test compounds are prepared in CAMHB at 2× the concentration range to be tested if the compounds are soluble in aqueous solution. Alternately, dimethylsulfoxide (DMSO) is used to prepare two-fold dilutions at 10× the concentration range to be tested. Reference drugs such as cefotaxime, vancomycin or imipenem are used as positive controls. A few isolated colonies are retrieved from a pure culture prepared on an agar plate and suspended in PBS until the turbidity of the suspension matches a 0.5 McFarland standard which is equal to approximately 10^8 sCFU/mL. This solution is further diluted in CAMHB to 10^6CFU/mL if compounds are diluted in CAMHB and 5×10^5 CFU/mL if compounds are diluted in DMSO. The CAMHB plates containing the compound dilutions are combined in equal volumes with the higher density inoculum, or 10 μL of the DMSO dilutions are added to the lower density inoculum. When S. aureus is the organism being tested and the compound is oxacillin, a beta-lactam or a carbacephem compound of the present invention, 2% NaCl is added to the growth media. The plates are then incubated for 16-20 hours at 35° C. The plates are then observed to determine which concentration of the test compound is the MIC.

[2] = tested on: S. aureus ASAU1033 (MRSA, CIP, ERY, CLIN, TET, GEN resistant); experiment: MIC assay, S. aureus ASAU1033; assay type: cell-based; conditions: Staphylococcus aureus, read-out: MIC ASAU 1033
Method: as §1, §2

[3] = tested on: S. aureus ASAU1029 (CA-MRSA, USA300); experiment: MIC assay, S. aureus ASAU1029; assay type: cell-based; conditions: Staphylococcus aureus, read-out: MIC ASAU 1029
Method: as §1, §2

[4] = tested on: S. aureus ASAU002 (MRSA ATCC 33591); experiment: MIC assay, S. aureus ASAU002; assay type: cell-based; conditions: Staphylococcus aureus
Method: as §1, §2

[5] = tested on: S. aureus ASAU1043 (MRSA, CIP, ERY, CLI, GEN resistant); experiment: MIC assay, S. aureus ASAU1043; assay type: cell-based; conditions: Staphylococcus aureus, read-out: MIC ASAU 1043
Method: as §1, §2

[6] = tested on: S. aureus ASAU1028 (CA-MRSA, USA400); experiment: MIC assay, S. aureus ASAU1028; assay type: cell-based; conditions: Staphylococcus aureus, read-out: MIC ASAU 1028
Method: as §1, §2

[7] = Pharmacokinetic study in rats; assay type: in vivo; conditions: male, Sprague-Dawley, rat
Method: Male cannulated Sprague-Dawley rats (˜250 g) are administered test compounds by IV, PO, or SC routes. All animals are weighed prior to dose administration. Blood (˜0.25 mL) is collected by cannula transferred into microtainer tubes containing EDTA at time points 2 (I.V. animals only), 5, 15, 30, 60, 120, 240, 360, 480, 1440 minutes. After collection, the blood samples are centrifuged at approximately 1000×g at 2-8° C. for approximately 10 minutes. Each plasma specimen is collected, aliquoted into cluster tubes, and stored at ˜−20° C. until analysis.

[8] = tested on: Staphylococcus aureus Methicillin Resistance (MRSA) (ATCC 33591); experiment: Neutropenic mouse infected thigh model; assay type: in vivo, mice
Method: Groups of 6 male specific-pathogen-free CD-1 mice weighing 22±2 g are used. Animals are rendered immunosuppressedion by two intraperitoneal injections of cyclophosphamide, the first at 150 mg/kg 4 days before infection (day −4) and the second at 100 mg/kg 1 day before infection (day −1). On day 0, animals are inoculated intramuscularly (0.1 ml/thigh) with 1×10^5 CFU/mouse of Staphylococcus aureus Methicillin Resistance (MRSA) (ATCC 33591) into right thigh. Vehicle and/or test substances are then administered (IV, SC, or PO) 2 hours later. At 26 hours after inoculation, muscle of the right thigh is harvested from each of the survival test animals. The removed muscle tissues are then homogenized in 3 to 4 ml of PBS, pH 7.4 with a ceramic mortar. Homogenates of 0.1 ml are used for serial 10-fold dilutions and plated on Muller Hinton Broth in 1.5% Bacto® Agar for CFU determination. Decrease of the CFU/g muscle of right thigh in 99 percent or more (≧99) of the animals indicates significant activity. See, e.g., Andes, D. et al., Antimicrobial Agents and Chemotherapy, 46: 1665-1670 (2002); and Griffith, D. C., et al., Antimicrobial Agents and Chemotherapy, 50: 1628-1632 (2006).
Test compounds were dosed s.c. at 60, 120 or 240 mg/kg/day, except vancomycin at a single dose level of 220 mg/kg/day.

[9] = tested on: Staphylococcus aureus Methicillin Resistance (MRSA) (ATCC 33591); conditions: 160 mg/kg/day, dosed 4 times per day, previously reported (Craig et al.); cited from earlier work
[10] = previously reported (Griffith et al.); cited from earlier work
[11] = tested on: S. aureus ASAU002 (MRSA ATCC 33591); conditions: previously reported (Craig et al.); cited from earlier work
[12] = S. aureus ASAU002, MRSA ATCC 33591, read-out: MIC ASAU 002

In the case of `Nc1nc(/C(=N\O)C(=O)NC2C(=O)N3C(C(=O)O)=C(/C=C4\CCN(C5CCNC5)C4=O)CS[C@H]23)ns1` (some centres unmarked) [Comparative Compound 1, reference compound], the MIC [1] is reported as ≤ 1 µg/mL, the MIC [2] is reported as 1 to 8 µg/mL (≈ 1.87 to 15 µM) and the MIC [3] is reported as ≤ 1 µg/mL. The MIC [4, 12] was 1 to 8 µg/mL (≈ 1.87 to 15 µM), the MIC [5] was 1 to 8 µg/mL (≈ 1.87 to 15 µM) and the MIC [6] was 1 to 8 µg/mL (≈ 1.87 to 15 µM).
In the case of `Nc1nc(/C(=N/O)C(=O)N[C@@H]2C(=O)N3C(C(=O)O)=C(Sc4ccncc4)CC[C@H]23)c(Cl)s1` [27/1, (6R,7S,Z)-7-(2-(2-amino-5-chlorothiazol-4-yl)-2-(hydroxyimino)acetamido)-8-oxo-3-(pyridin-4-ylthio)-1-aza-bicyclo[4.2.0]oct-2-ene-2-carboxylic Acid], the MIC [1] is reported as ≤ 1 µg/mL, the MIC [2] is reported as 1 to 8 µg/mL (≈ 2.02 to 16.2 µM) and the MIC [3] is reported as ≤ 1 µg/mL. The MIC [4, 12] was 1 to 8 µg/mL (≈ 2.02 to 16.2 µM), the MIC [5] was 1 to 8 µg/mL (≈ 2.02 to 16.2 µM) and the MIC [6] was ≤ 1 µg/mL.
For `Cc1nc(SC2=C(C(=O)O)N3C(=O)[C@@H](NC(=O)/C(=N\O)c4nc(N)sc4Cl)[C@H]3CC2)sc1C` [33/1, (6R,7S,Z)-7-(2-(2-amino-5-chlorothiazol-4-yl)-2-(hydroxyimino)acetamido)-3-(4,5-dimethylthiazol-2-ylthio)-8-oxo-1-aza-bicyclo[4.2.0]oct-2-ene-2-carboxylic Acid], the MIC [1] was ≤ 1 µg/mL, the MIC [2] was 1 to 8 µg/mL (≈ 1.89 to 15.1 µM) and the MIC [3] was ≤ 1 µg/mL. The MIC [4, 12] was 1 to 8 µg/mL (≈ 1.89 to 15.1 µM), the MIC [5] was 1 to 8 µg/mL (≈ 1.89 to 15.1 µM) and the MIC [6] was 1 to 8 µg/mL (≈ 1.89 to 15.1 µM).
In the case of `Nc1nc(/C(=N/O)C(=O)N[C@@H]2C(=O)N3C(C(=O)O)=C(Sc4cscn4)CC[C@H]23)c(Cl)s1` [35/1, (6R,7S,Z)-7-(2-(2-amino-5-chlorothiazol-4-yl)-2-(hydroxyimino)acetamido)-8-oxo-3-(thiazol-4-ylthio)-1-aza-bicyclo[4.2.0]oct-2-ene-2-carboxylic Acid], the MIC [1] is reported as ≤ 1 µg/mL, the MIC [2] is reported as > 8 µg/mL and the MIC [3] is reported as 1 to 8 µg/mL (≈ 2 to 16 µM). For the same compound, the MIC [4, 12] was > 8 µg/mL, the MIC [5] was > 8 µg/mL and the MIC [6] was 1 to 8 µg/mL (≈ 2 to 16 µM).
For `NCCSCc1cnccc1SC1=C(C(=O)O)N2C(=O)[C@@H](NC(=O)/C(=N\O)c3nsc(N)n3)[C@H]2CC1` [48/1, (6R,7S,Z)-7-(2-(5-amino-1,2,4-thiadiazol-3-yl)-2-(hydroxyimino)acetamido)-3-(3-((2-aminoethylthio)methyl)pyridin-4-ylthio)-8-oxo-1-aza-bicyclo[4.2.0]oct-2-ene-2-carboxylic Acid], the “time uncorrected plasma concentrations are above the MIC” value ([7]; in vivo, 10 mg/kg) was 2 h, the half-life ([7]; plasma, rats, 10 mg/kg IV) was 1.8 h and the Vd ([7]; plasma, rats, 10 mg/kg IV, read-out: volume of distribution Vss) was 1.08 L/kg. The MIC [1] was ≤ 1 µg/mL, the MIC [2] was 1 to 8 µg/mL (≈ 1.82 to 14.5 µM) and the “log kill (CFU) in thigh” value ([8]; s.c., lowest dose of 60 mg/kg/day (TID 20 mg/kg/8 h)) was 1 log kill. The “efficacy compared with vancomycin” value ([8]; vancomycin 220 mg/kg/day (BID 110 mg/kg/12 h)) was “more effective than vancomycin”, the MIC [3] was ≤ 1 µg/mL and the MIC [4, 12] was ≤ 1 µg/mL. The MIC ([4]; strain used in the infected thigh model (ATCC 33591), read-out: MIC) was 1 µg/mL (≈ 1.82 µM), the MIC [5] was 1 to 8 µg/mL (≈ 1.82 to 14.5 µM) and the MIC [6] was ≤ 1 µg/mL.
For `CO/N=C(\C(=O)N[C@@H]1C(=O)N2C(C(=O)O)=C(Sc3cccnc3CSC3CCNC3)CC[C@H]12)c1nc(N)sc1Cl` (stereo partly drawn) [42/1, (6R,7S,Z)-7-(2-(2-amino-5-chlorothiazol-4-yl)-2-(methoxyimino)acetamido)-8-oxo-3-(2-((pyrrolidin-3-ylthio)methyl)pyridin-3-ylthio)-1-aza-bicyclo[4.2.0]oct-2-ene-2-carboxylic Acid], the MIC [1] was ≤ 1 µg/mL, the MIC [2] was 1 to 8 µg/mL (≈ 1.6 to 12.8 µM) and the MIC [3] was 1 to 8 µg/mL (≈ 1.6 to 12.8 µM). The MIC [4, 12] was 1 to 8 µg/mL (≈ 1.6 to 12.8 µM), the MIC [5] was > 8 µg/mL and the MIC [6] was 1 to 8 µg/mL (≈ 1.6 to 12.8 µM).
In the case of `Nc1nnc(SC2=C(C(=O)O)N3C(=O)[C@@H](NC(=O)/C(=N\O)c4nc(N)sc4Cl)[C@H]3CC2)s1` [Comparative Compound 2], the MIC [1] is given as ≤ 1 µg/mL, the “log kill in CFU count” value [9] is given as 3 log kill and the MIC [4, 12] is given as ≤ 1 µg/mL. The T1/2 [10] was 1.47 h, the Vss [10] was 0.91 L/kg and the MIC [11] was 1 µg/mL (≈ 1.93 µM).
For `CO/N=C(\C(=O)N[C@@H]1C(=O)N2C(C(=O)O)=C(Sc3cccnc3N)CC[C@H]12)c1nc(N)sc1Cl` [40/1, (6R,7S)-7-(2-(2-amino-5-chlorothiazol-4-yl)-2-(methoxyimino)acetamido)-3-(2-aminopyridin-3-ylthio)-8-oxo-1-aza-bicyclo[4.2.0]oct-2-ene-2-carboxylic acid], the MIC [1] was ≤ 1 µg/mL, the MIC [2] was > 8 µg/mL and the MIC [3] was > 8 µg/mL. The MIC [5] was > 8 µg/mL and the MIC [6] was 1 to 8 µg/mL (≈ 1.91 to 15.3 µM).
For `NCCSCc1ncccc1SC1=C(C(=O)O)N2C(=O)[C@@H](NC(=O)/C(=N\O)c3nsc(N)n3)[C@H]2CC1` [47/1, (6R,7S,Z)-7-(2-(5-amino-1,2,4-thiadiazol-3-yl)-2-(hydroxyimino)acetamido)-3-(2-((2-aminoethylthio)methyl)pyridin-3-ylthio)-8-oxo-1-aza-bicyclo[4.2.0]oct-2-ene-2-carboxylic Acid], the MIC [1] was ≤ 1 µg/mL, the MIC [2] was 1 to 8 µg/mL (≈ 1.82 to 14.5 µM) and the MIC [3] was ≤ 1 µg/mL. The MIC [5] was 1 to 8 µg/mL (≈ 1.82 to 14.5 µM) and the MIC [6] was 1 to 8 µg/mL (≈ 1.82 to 14.5 µM).
For `CO/N=C(\C(=O)N[C@@H]1C(=O)N2C(C(=O)O)=C(Sc3nnc(N)s3)CC[C@H]12)c1nsc(N)n1` [49/1, (6R,7S,Z)-7-(2-(5-amino-1,2,4-thiadiazol-3-yl)-2-(methoxyimino)acetamido)-3-(5-amino-1,3,4-thiadiazol-2-ylthio)-8-oxo-1-aza-bicyclo[4.2.0]oct-2-ene-2-carboxylic Acid], the MIC [1] was ≤ 1 µg/mL, the MIC [2] was > 8 µg/mL and the MIC [3] was 1 to 8 µg/mL (≈ 2.01 to 16.1 µM). The MIC [5] was > 8 µg/mL and the MIC [6] was > 8 µg/mL.
With `Nc1nc(/C(=N/O)C(=O)N[C@@H]2C(=O)N3C(C(=O)O)=C(Sc4nnc(N)s4)CC[C@H]23)ns1` [45/1, (6R,7S,Z)-7-(2-(5-amino-1,2,4-thiadiazol-3-yl)-2-(hydroxyimino)acetamido)-3-(5-amino-1,3,4-thiadiazol-2-ylthio)-8-oxo-1-aza-bicyclo[4.2.0]oct-2-ene-2-carboxylic Acid] the MIC [1] was ≤ 1 µg/mL, the MIC [2] was > 8 µg/mL and the MIC [3] was ≤ 1 µg/mL. The MIC [5] was > 8 µg/mL and the MIC [6] was 1 to 8 µg/mL (≈ 2.07 to 16.5 µM).

Source: patent US8445476B2, “Carbacephem β-lactam antibiotics” (Achaogen, Inc., priority 2007, dated 2013)
